# Experimental data published in patent US9988380B2, “Quorum sensing inhibitors” (priority 2013, dated 2018).
# Assays:
# [1] = tested on: LasR-controlled GFP expression in P. aeruginosa PAO1 lasB-gfp(ASV) strain; assay: P. aeruginosa QS inhibition assay with lasB-gfp(ASV) reporter strain; type: cell-based, Pseudomonas aeruginosa
# Experimental: P. aeruginosa QS inhibition assays. Test compounds were dissolved in 100% DMSO and mixed with ABTGC media, after which they were added to the first column of wells of a 96-well microtitre plate (Nunc) to give a final concentration of 100 μM in a final volume of 200 μl. 100 μL of ABTGC media was then added to the remaining wells in the plate and serial two-fold dilutions of the inhibitors were done by adding 100 μL of the preceding inhibitor-containing well to the subsequent one. The final column was left without inhibitor as a control. Next, an overnight culture of P. aeruginosa lasB-gfp(ASV) strain, grown in LB medium at 37° C. with shaking, was diluted to an optical density (OD) at 600 nm of 0.2, and 100 μl of bacterial suspension was added to each well of the microtitre plate. […] The microtitre plate was incubated at 37° C. in a Tecan Infinite 200 Pro plate reader (Tecan Group Ltd., Männedorf, Switzerland). GFP fluorescence (excitation at 485 nm, emission at 535 nm) and cell density (OD600) measurements were collected at 15 min intervals for at least 14 h. The P. aeruginosa Rhl and Pqs inhibition assays were performed in a similar manner to the LasR inhibition assay.
# Inhibition Assay with the P. aeruginosa lasB-gfp(ASV) strain. In the preliminary screen, the 22 selected QSI candidates were screened for their ability to inhibit QS-controlled green fluorescent protein (GFP) expression in the P. aeruginosa lasB-gfp(ASV) strain. Elastase (encoded by the lasB gene) is a virulence factor that is controlled by LasR and therefore a good indicator for LasR activity. […] For ease of identification, each compound was designated a short compound identification code based on its well position in the shipment in place of its standard IUPAC name.
# The dose-response curves of these 5 QSI candidates when incubated with the P. aeruginosa PAO1 lasB-gfp(ASV) strain are shown in FIG. 3. GFP expression, which was measured in relative fluorescence units, was normalized by dividing the GFP value by the corresponding OD600 value measured at that time-point. ‘Control’ refers to the PAO1 strain grown without the presence of QSI, and as expected, it had the highest GFP per OD values. For these five compounds, dose-dependent inhibition of lasB-gfp expression was observed, i.e. the higher the concentration of QSI that was present, the greater the inhibition of gfp expression.
# IC50 Value Comparisons of the Five QSI Candidates. The slope of the curve for each QSI was calculated based on its respective dose-response curves (from FIG. 3) and plotted against the log inhibitor concentration. The slope is indicative of the biosynthesis rate of GFP due to AHL induction. The half maximal inhibitory concentrations (IC50) of the five QSI candidates were calculated using the Graphpad Prism 6 software package (GraphPad Software Inc., CA, USA).
# [2] = tested on: P. aeruginosa PAO1 strain; assay: iTRAQ-based quantitative proteomic analysis; type: cell-based; conditions: 25 μM G1
# Experimental: iTRAQ-Based Proteomics Analyses for G1. Isobaric tag for relative and absolute quantitation (iTRAQ)-based proteomic analysis was used to study the changes in protein expression of the P. aeruginosa PAO1 strain in response to the addition of 25 μM of G1. Proteomics experiments were performed at the Proteomic Core Facility of the Biological Research Center, School of Biological Sciences, Nanyang Technological University, Singapore. A full description of the proteomics workflow is given below.
# Protein preparation and digestion. The P. aeruginosa PAO1 strain was grown in ABTG media. Sub-lethal concentrations of G1 (25 μM) were added to independent P. aeruginosa PAO1 cultures respectively. Cultures were grown in LB medium at 37° C. with shaking until late log phase (OD 600 nm=1.0) before harvesting. After harvesting, cell pellets were washed with 1×PBS and resuspended in 2 ml of lysis buffer containing 0.5M TEAB and 0.1M SDS. The cells were ruptured by sonication, and the cell debris was removed by centrifugation at 4° C. at 16000×g for 15 min. 200 μg of proteins from different growth conditions were dissolved in equal volume of sample buffer (Invitrogen) supplemented with 0.5% 2-mercaptoethanol and denatured by boiling at 95° C. for 5 min. 1D gel electrophoresis was carried out using 10% SDS-PAGE for in-gel digestion.
# Proteins were first reduced using 5 mM Tris-(2-carboxyethyl)phosphine (TCEP) for 1 h at 60° C., followed by blocking of cysteine residues by 10 mM methyl methanethiosulfate (MMTS) for 30 min at room temperature in the dark. Trypsin was added at a ratio of 1:50 (trypsin/sample). It was then incubated at 37° C. overnight. The tryptic peptides were extracted by 50% ACN/5% Acetic Acid from gel for 3 times and were desalted using Sep-Pak C18 cartridges (Waters, Milford, Mass.) and dried in a SpeedVac (Thermo Electron, Waltham, Mass.). All chemicals were purchased from Sigma-Aldrich unless stated otherwise.
# iTRAQ labeling. The iTRAQ labeling of the tryptic peptides was performed using 4-plex iTRAQ reagent kit (Applied Biosystems, Foster City, Calif.), according to the manufacturers protocol. 200 μg of peptides from each condition were individually labeled with respective isobaric tags: control sample with 114, and the G1 treated sample with 115. After 2 h incubation, the samples were quenched by water, desalted using C18 solid phase extraction cartridge, and then vacuum-centrifuged to dryness. […] The HPLC chromatograms were recorded at 280 nm and fractions were collected online using automated fraction collector. 20 fractions were collected and concentrated using vacuum centrifuge and reconstituted in 3% ACN with 0.1% formic acid for LC-MS/MS analysis.
# LC-MS/MS. The peptides were separated and analyzed on a home-packed nanobore C18 column (15 cm×75 μm; Reprosil-Pur C18-AQ, 3 μm, Dr Maisch, Germany) with a Picofritnanospray tip (New Objectives, Woburn, Mass., USA) on a Tempo™ nano-MDLC system coupled with a QSTAR® Elite Hybrid LC-MS/MS system (Applied Biosystems). Peptides from each fraction were analyzed in triplicate by LC-MS/MS over a gradient of 90 min. The flow rate of the LC system was set to a constant 300 nl/min. Data acquisition in QSTAR Elite was set to positive ion mode using Analyst® QS 2.0 software (Applied Biosystems). MS data was acquired in positive ion mode with a mass range of 300-1600 m/z. Peptides with +2 to +4 charge states were selected for MS/MS. For each MS spectrum, the three most abundant peptides above a five-count threshold were selected for MS/MS and dynamically excluded for 30 s with a mass tolerance of 0.03 Da. Smart information-dependent acquisition was activated with automatic collision energy and automatic MS/MS accumulation. The fragment intensity multiplier was set to 20 and maximum accumulation time was 2 s.
# Data analysis. […]
structure (smiles),measurement,setting,value
"N=c1[nH]c(=O)c2nn[nH]c2[nH]1 [Compound G1, 5-imino-4,6-dihydro-3H-1,2,3-triazolo[5,4-d]pyrimidin-7-one]","IC50 of lasB-gfp expression, range in words",[1]; P. aeruginosa PAO1 lasB-gfp(ASV),high nanomolar range
same,effect on cell growth,"[1]; P. aeruginosa lasB-gfp(ASV) strain, OD600",without affecting cell growth
same,inhibition of LasR-controlled GFP expression,"[1]; P. aeruginosa lasB-gfp(ASV) strain, 0.78125-50 μM",inhibit LasR-controlled GFP expression in a dose-dependent manner
same,IC50,"[1]; Pseudomonas aeruginosa, PAO1, read-out: IC50 of lasB-gfp expression",640 nM
same,"abundance of protease IV (PA4175), 115:114",[2],0.29
same,change in abundance of pyoverdine chromophore synthetase (pvdL; PA2424),[2],−0.73 fold
same,change in abundance of pyoverdine synthetase D (pvdD; PA2399),[2],−0.89 fold
same,elastase (lasB; PA3724) in the proteomics result,[2],not identified as down-regulated
same,number of proteins with abundance upregulated,[2]; 115:114 score at least 1.5,19
same,number of proteins with abundance down-regulated,[2]; 115:114 score below 0.66,27
same,number of proteins significantly affected,[2]; p-value (115:114) cut-off 0.05,46
